What was measured:
human JAK1 = target: T1, human JAK1 (Homo sapiens, UniProt P23458); assay: JAK1 inhibition assay (polyGT substrate / Ulight-JAK1 peptide); type: biochemical; conditions: recombinant human JAK1 catalytic domain; polyGT or Ulight-JAK1 peptide assay
T1 construct: catalytic domain, amino acids 866-1154; catalog number PV4774; purchased Invitrogen PV4774
Method in brief: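 Two formats. PolyGT radiometric: 45 min at 30 °C, stopped with phosphoric acid, counted as cpm. Ulight-JAK1 peptide: 60 min at room temperature, stopped with Eu-anti-phosphotyrosine/EDTA, read as RFU. Percent inhibition normalised to vehicle and 10 μM staurosporine.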

human JAK2 = target: T2, human JAK2 (Homo sapiens, UniProt O60674); assay: JAK2 inhibition assay (polyGT substrate / Ulight-JAK1 peptide); type: biochemical; conditions: recombinant human JAK2 catalytic domain; polyGT or Ulight-JAK1 peptide assay
T2 construct: catalytic domain (amino acids 808-1132; catalog number PV4210); GST; purchased Invitrogen PV4210
Method in brief: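 Radiometric: 0.025 mU JAK2 with 2.5 μg polyGT, 1 μM ATP plus ^33P-ATP in MOPS pH 7.5 buffer, 1% DMSO, 90 min at 30° C.; filter counting. Alternative TR-FRET format with Ulight-JAK1 peptide, 60 min at room temperature, Eu-anti-phosphotyrosine detection.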

human JAK3 = target: T3, human JAK3 (Homo sapiens, UniProt P52333); assay: JAK3 inhibition assay; type: biochemical; conditions: recombinant human JAK3 catalytic domain; polyGT substrate
T3 construct: catalytic domain (amino acids 781-1124; catalog number PV3855); purchased Invitrogen PV3855
Method in brief: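 Radiometric kinase assay: 0.5 ng JAK3 with 2.5 μg polyGT in Tris pH 7.5/MgCl2 buffer, 1 μM ATP plus 0.25 μCi 33P-γ-ATP, 1% DMSO, 45 min at 30 °C, stopped with phosphoric acid.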

human TYK2 = target: T4, human TYK2 (Homo sapiens, UniProt P29597); assay: TYK2 inhibition assay; type: biochemical; conditions: recombinant human TYK2 catalytic domain, polyGT substrate
T4 construct: catalytic domain (amino acids 871-1187; catalog number 08-147); purchased Carna Biosciences 08-147
T4 sequence (P29597 871-1187): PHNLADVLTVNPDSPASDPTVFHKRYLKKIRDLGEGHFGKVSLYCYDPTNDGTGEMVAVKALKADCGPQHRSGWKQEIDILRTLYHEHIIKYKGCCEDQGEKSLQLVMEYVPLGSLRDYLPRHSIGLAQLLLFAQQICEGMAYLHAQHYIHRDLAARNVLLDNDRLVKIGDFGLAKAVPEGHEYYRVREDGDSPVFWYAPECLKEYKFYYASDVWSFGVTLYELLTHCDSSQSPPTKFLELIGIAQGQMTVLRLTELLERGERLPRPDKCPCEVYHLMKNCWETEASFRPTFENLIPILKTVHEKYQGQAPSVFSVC
Method in brief: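 Radiometric kinase reaction run 90 min at 30 °C, stopped with phosphoric acid, washed and scintillation-counted.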

CTLL-2 cell line = assay: CTLL2 viability assay; type: cell-based; conditions: Mus musculus, IL-2 dependent CTLL2 viability, 24 h, ATP-lite
From the text: The protocol describes the methods to analyse the activity of compounds on their ability to sustain the IL2-dependent viability of CTLL2.
Final DMSO concentration was 0.1%.

T1 sequence (P23458 866-1154): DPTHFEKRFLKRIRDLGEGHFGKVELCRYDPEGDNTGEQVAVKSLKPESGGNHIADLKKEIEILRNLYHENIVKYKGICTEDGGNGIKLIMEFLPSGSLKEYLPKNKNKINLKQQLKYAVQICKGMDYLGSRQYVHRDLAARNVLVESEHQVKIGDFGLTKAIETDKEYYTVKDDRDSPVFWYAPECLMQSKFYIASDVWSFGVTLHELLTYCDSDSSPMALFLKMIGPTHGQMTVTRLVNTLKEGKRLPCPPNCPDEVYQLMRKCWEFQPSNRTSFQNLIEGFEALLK
T3 sequence (P52333 781-1124): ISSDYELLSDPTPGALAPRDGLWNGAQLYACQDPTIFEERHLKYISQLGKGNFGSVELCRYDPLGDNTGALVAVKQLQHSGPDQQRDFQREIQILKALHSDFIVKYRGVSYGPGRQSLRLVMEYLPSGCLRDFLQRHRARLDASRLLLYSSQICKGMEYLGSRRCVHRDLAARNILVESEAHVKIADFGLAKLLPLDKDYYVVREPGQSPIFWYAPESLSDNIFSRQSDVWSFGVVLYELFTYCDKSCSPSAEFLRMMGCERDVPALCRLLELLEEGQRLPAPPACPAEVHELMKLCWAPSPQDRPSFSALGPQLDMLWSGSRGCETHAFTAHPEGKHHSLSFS
T2 sequence (O60674 808-1132): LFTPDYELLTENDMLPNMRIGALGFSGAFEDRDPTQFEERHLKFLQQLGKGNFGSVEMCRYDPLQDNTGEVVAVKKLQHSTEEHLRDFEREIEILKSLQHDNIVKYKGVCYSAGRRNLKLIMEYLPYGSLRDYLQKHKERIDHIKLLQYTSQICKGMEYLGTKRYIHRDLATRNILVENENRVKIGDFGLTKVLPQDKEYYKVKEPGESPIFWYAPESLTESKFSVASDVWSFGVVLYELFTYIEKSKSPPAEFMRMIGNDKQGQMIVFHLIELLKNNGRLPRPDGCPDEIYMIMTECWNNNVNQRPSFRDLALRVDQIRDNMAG

CC(C)S(=O)(=O)N1CC(c2ccc(N(C)c3cc4c(cn3)ncn4C)c(OC(F)F)c2)C1 [Compound 373, {2-Difluoromethoxy-4-[1-(propane-2-sulfonyl)-azetidin-3-yl]-phenyl}-methyl-(1-methyl-1H-imidazo[4,5-c]pyridin-6-yl)-amine]
IC50 (human JAK1): 0.01 to 100 nM | IC50 (human JAK2): 101 to 500 nM | IC50 (human JAK3): 501 to 1000 nM | IC50 (human TYK2): > 1000 nM | IC50 (CTLL-2 cell line): > 1000 nM

CCc1cc(N2CC[C@H](F)C2)ncc1N(C)c1cc2c(cn1)ncn2C [Compound 415, [4-Ethyl-6-((S)-3-fluoro-pyrrolidin-1-yl)-pyridin-3-yl]-methyl-(1-methyl-1H-imidazo[4,5-c]pyridin-6-yl)-amine]
IC50 (human JAK1): 0.01 to 100 nM | IC50 (human JAK2): 0.01 to 100 nM | IC50 (human JAK3): 0.01 to 100 nM | IC50 (human TYK2): 0.01 to 100 nM | IC50 (CTLL-2 cell line): > 1000 nM

CCc1cc(CNS(=O)(=O)N2CC(F)(F)C2)ccc1N(C)c1cc2c(cn1)ncn2C [Compound 424, 3,3-Difluoro-azetidine-1-sulfonic acid 3-ethyl-4-[methyl-(1-methyl-1H-imidazo[4,5-c]pyridin-6-yl)-amino]-benzylamide]
IC50 (human JAK1): 0.01 to 100 nM | IC50 (human JAK2): 0.01 to 100 nM | IC50 (human JAK3): 101 to 500 nM | IC50 (human TYK2): 101 to 500 nM | IC50 (CTLL-2 cell line): > 1000 nM

CCc1cc(C(C#N)N2CC(O)C2)ccc1N(C)c1cc2c(cn1)ncn2C (stereo not shown) [Compound 450, {3-Ethyl-4-[methyl-(1-methyl-1H-imidazo[4,5-c]pyridin-6-yl)-amino]-phenyl}-(3-hydroxy-azetidin-1-yl)-acetonitrile]
IC50 (human JAK1): 0.01 to 100 nM | IC50 (human JAK2): 0.01 to 100 nM | IC50 (human JAK3): 101 to 500 nM | IC50 (human TYK2): 0.01 to 100 nM | IC50 (CTLL-2 cell line): > 1000 nM

CCc1cc(C2CCCC2)ncc1N(C)c1cc2c(cn1)ncn2C [Compound 433, (6-Cyclopentyl-4-ethyl-pyridin-3-yl)-methyl-(1-methyl-1H-imidazo[4,5-c]pyridin-6-yl)-amine]
IC50 (human JAK1): 0.01 to 100 nM | IC50 (human JAK2): 0.01 to 100 nM | IC50 (human JAK3): 101 to 500 nM | IC50 (human TYK2): 101 to 500 nM | IC50 (CTLL-2 cell line): > 1000 nM

CN(c1cc2c(cn1)ncn2C)c1ccc(C2CN(CC(F)F)C2)cc1OC(F)F [Compound 365, {4-[1-(2,2-Difluoro-ethyl)-azetidin-3-yl]-2-difluoromethoxy-phenyl}-methyl-(1-methyl-1H-imidazo[4,5-c]pyridin-6-yl)-amine]
IC50 (human JAK1): 0.01 to 100 nM | IC50 (human JAK2): 101 to 500 nM | IC50 (human JAK3): 101 to 500 nM | IC50 (human TYK2): 501 to 1000 nM | IC50 (CTLL-2 cell line): > 1000 nM

CN(c1cc2c(cn1)ncn2C)c1ccc(C2CN(S(=O)(=O)N3CCCCC3)C2)cc1OC(F)F [Compound 372, {2-Difluoromethoxy-4-[1-(piperidine-1-sulfonyl)-azetidin-3-yl]-phenyl}-methyl-(1-methyl-1H-imidazo[4,5-c]pyridin-6-yl)-amine]
IC50 (human JAK1): 0.01 to 100 nM | IC50 (human JAK2): 101 to 500 nM | IC50 (human JAK3): 501 to 1000 nM | IC50 (human TYK2): 101 to 500 nM | IC50 (CTLL-2 cell line): > 1000 nM

CCc1cc(C(C#N)N2CCN(C)CC2)ccc1N(C)c1cc2c(cn1)ncn2C (stereo not shown) [Compound 449, {3-Ethyl-4-[methyl-(1-methyl-1H-imidazo[4,5-c]pyridin-6-yl)-amino]-phenyl}-(4-methyl-piperazin-1-yl)-acetonitrile]
IC50 (human JAK1): 0.01 to 100 nM | IC50 (human JAK2): 101 to 500 nM | IC50 (human JAK3): > 1000 nM | IC50 (human TYK2): 0.01 to 100 nM | IC50 (CTLL-2 cell line): > 1000 nM

CCc1cc(C(C#N)N2CC(C)(C)C2)ccc1N(C)c1cc2c(cn1)ncn2C (stereo not shown) [Compound 446, (3,3-Dimethyl-azetidin-1-yl)-{3-ethyl-4-[methyl-(1-methyl-1H-imidazo[4,5-c]pyridin-6-yl)-amino]-phenyl}-acetonitrile]
IC50 (human JAK1): 0.01 to 100 nM | IC50 (human JAK2): 0.01 to 100 nM | IC50 (human JAK3): 501 to 1000 nM | IC50 (human TYK2): 0.01 to 100 nM | IC50 (CTLL-2 cell line): > 1000 nM

CCc1cc(C(C#N)N2CCC(CO)CC2)ccc1N(C)c1cc2c(cn1)ncn2C (stereo not shown) [Compound 437, {3-Ethyl-4-[methyl-(1-methyl-1H-imidazo[4,5-c]pyridin-6-yl)-amino]-phenyl}-(4-hydroxymethyl-piperidin-1-yl)-acetonitrile]
IC50 (human JAK1): 0.01 to 100 nM | IC50 (human JAK2): 0.01 to 100 nM | IC50 (human JAK3): 101 to 500 nM | IC50 (human TYK2): 0.01 to 100 nM | IC50 (CTLL-2 cell line): > 1000 nM

CCc1cc(CN2CCC(S(C)(=O)=O)C2)ccc1N(C)c1cc2c(cn1)ncn2C (stereo not shown) [Compound 420, [2-Ethyl-4-(3-methanesulfonyl-pyrrolidin-1-ylmethyl)-phenyl]-methyl-(1-methyl-1H-imidazo[4,5-c]pyridin-6-yl)-amine]
IC50 (human JAK1): 0.01 to 100 nM | IC50 (human JAK2): 101 to 500 nM | IC50 (human JAK3): > 1000 nM | IC50 (human TYK2): 101 to 500 nM | IC50 (CTLL-2 cell line): > 1000 nM

CCc1cc(C(C#N)N2CC[C@@H](F)C2)ccc1N(C)c1cc2c(cn1)ncn2C (stereo partly drawn) [Compound 438, {3-Ethyl-4-[methyl-(1-methyl-1H-imidazo[4,5-c]pyridin-6-yl)-amino]-phenyl}-((R)-3-fluoro-pyrrolidin-1-yl)-acetonitrile]
IC50 (human JAK1): 0.01 to 100 nM | IC50 (human JAK2): 0.01 to 100 nM | IC50 (human JAK3): 101 to 500 nM | IC50 (human TYK2): 0.01 to 100 nM | IC50 (CTLL-2 cell line): > 1000 nM

CCc1cc(CN2CC3(COC3)C2)ccc1N(C)c1cc2c(cn1)ncn2C [Compound 419, [2-Ethyl-4-(2-oxa-6-aza-spiro[3.3]hept-6-ylmethyl)-phenyl]-methyl-(1-methyl-1H-imidazo[4,5-c]pyridin-6-yl)-amine]
IC50 (human JAK1): 101 to 500 nM | IC50 (human JAK2): > 1000 nM | IC50 (human JAK3): > 1000 nM | IC50 (human TYK2): > 1000 nM | IC50 (CTLL-2 cell line): > 1000 nM

CCc1cc(C(C#N)N2CCC(F)(F)C2)ccc1N(C)c1cc2c(cn1)ncn2C (stereo not shown) [Compound 441, (3,3-Difluoro-pyrrolidin-1-yl)-{3-ethyl-4-[methyl-(1-methyl-1H-imidazol[4,5-d]pyridin-6-yl)-amino]-phenyl}-acetonitrile]
IC50 (human JAK1): 0.01 to 100 nM | IC50 (human JAK2): 0.01 to 100 nM | IC50 (human JAK3): 101 to 500 nM | IC50 (human TYK2): 0.01 to 100 nM | IC50 (CTLL-2 cell line): > 1000 nM

CCc1cc(C(C#N)N2CC(F)(F)C2)ccc1N(C)c1cc2c(cn1)ncn2C (stereo not shown) [Compound 440, (3,3-Difluoro-azetidin-1-yl)-{3-ethyl-4-[methyl-(1-methyl-1H-imidazo[4,5-c]pyridin-6-yl)-amino]-phenyl}-acetonitrile]
IC50 (human JAK1): 0.01 to 100 nM | IC50 (human JAK2): 0.01 to 100 nM | IC50 (human JAK3): 101 to 500 nM | IC50 (human TYK2): 0.01 to 100 nM | IC50 (CTLL-2 cell line): > 1000 nM

CCc1cc(C(C#N)N2CCC(C(N)=O)CC2)ccc1N(C)c1cc2c(cn1)ncn2C (stereo not shown) [Compound 451, 1-(Cyano-{3-ethyl-4-[methyl-(1-methyl-1H-imidazo[4,5-c]pyridin-6-yl)-amino]-phenyl}-methyl)-piperidine-4-carboxylic acid amide]
IC50 (human JAK1): 0.01 to 100 nM | IC50 (human JAK2): 0.01 to 100 nM | IC50 (human JAK3): 101 to 500 nM | IC50 (human TYK2): 0.01 to 100 nM | IC50 (CTLL-2 cell line): > 1000 nM

CCc1cc(C2CCN(CC#N)CC2)ncc1N(C)c1cc2c(cn1)ncn2C [Compound 384, {4-Ethyl-5-(methyl-(1-methyl-1H-imidazo[4,5-c]pyridin-6-yl)-amino)-3′,4′,5′,6′-tetrahydro-2′H-(2,4′]bipyridinyl-1′-yl}-acetonitrile]
IC50 (human JAK1): 0.01 to 100 nM | IC50 (human JAK2): 101 to 500 nM | IC50 (human JAK3): > 1000 nM | IC50 (human TYK2): 101 to 500 nM | IC50 (CTLL-2 cell line): > 1000 nM

CCc1cc(C(C#N)N2CC(NC(=O)OC(C)(C)C)C2)ccc1N(C)c1cc2c(cn1)ncn2C (stereo not shown) [Compound 436, [1-(Cyano-{3-ethyl-4-[methyl-(1-methyl-1H-imidazo[4,5-c]pyridin-6-yl)-amino]-phenyl}-methyl)-azetidin-3-yl]-carbamic acid tert-butyl ester]
IC50 (human JAK1): 0.01 to 100 nM | IC50 (human JAK2): 0.01 to 100 nM | IC50 (human JAK3): 101 to 500 nM | IC50 (human TYK2): 0.01 to 100 nM | IC50 (CTLL-2 cell line): > 1000 nM

CCc1cc(CN2CCC(F)(F)CC2)ccc1N(C)c1cc2c(cn1)ncn2C [Compound 422, [4-(4,4-Difluoro-piperidin-1-ylmethyl)-2-ethyl-phenyl]-methyl-(1-methyl-1H-imidazo[4,5-c]pyridin-6-yl)-amine]
IC50 (human JAK1): 0.01 to 100 nM | IC50 (human JAK2): 501 to 1000 nM | IC50 (human JAK3): > 1000 nM | IC50 (human TYK2): 501 to 1000 nM | IC50 (CTLL-2 cell line): > 1000 nM

CCc1cc(CNS(N)(=O)=O)ccc1N(C)c1cc2c(cn1)ncn2C [Compound 423, N-{3-Ethyl-4-[methyl-(1-methyl-1H-imidazo[4,5-c]pyridin-6-yl)-amino]-benzyl}-aminosulfonamide]
IC50 (human JAK1): 0.01 to 100 nM | IC50 (human JAK2): 0.01 to 100 nM | IC50 (human JAK3): 0.01 to 100 nM | IC50 (human TYK2): 0.01 to 100 nM | IC50 (CTLL-2 cell line): > 1000 nM

— patent US20130217664A1, “NOVEL COMPOUNDS USEFUL FOR THE TREATMENT OF DEGENERATIVE AND INFLAMMATORY DISEASES” (priority 2012, published 2013)
